Several values for one entry are separate records, joined by “and”; a condition that tells them apart may be missing. Equal values may be shown once.
Columns and labels:
[1] = RP-HPLC for related substances of zidovudine (Ph. Eur. 9.5) after lyophilisation; format: physicochemical; conditions: aqueous lyo solution
Protocol: RP-HPLC chromatography for quantity and purity of zidovudine was performed according to monograph Ph. Eur. 9.5 (January 2017:1059). The following chromatographic conditions were used for the analysis.
• XTerra RP18 VanGuard cartridge, 3.9×5 mm, 5 μm Mobile phase A 2 g/L ammonium acetate, pH 6.8 Mobile phase B Acetonitrile
Mobile phase A was prepared by dissolving 2 g ammonium acetate in 800 mL of purified water, pH was adjusted to 6.8 with acetic acid. The solution was made up to 1 L with purified water.
Diluent was prepared by mixing 76 mL mobile phase A with 4 mL of ACN and 20 mL methanol.
Reference solution A: 2 mg of impurity C and 2 mg of impurity B were dissolved in 50 mL diluent. 1 mL of this solution was diluted with 19 mL diluent.

[2] = buffered aqueous system
Protocol: A two component buffer system consisting of acetate and phosphate (5 mM acetate and 5 mM phosphate) was used to cover a pH range of about 4.5 to 7.5. After complete dissolution of the solid, the pH was adjusted to the desired pH value using hydrochloric acid.

[3] = Solubility screening in organic solvent system (tert-butanol/water)
Protocol: Substances were dissolved in an appropriate volume to justify the use of an organic solvent based system (reduction of the fill volume per vial by a factor of 4, ˜5 mL fill volume in organic solvent based systems). Samples were tested for stability of the APIs in solution when stored for 24 h at 2 to 8° C. and 25° C. […] The chromatographic conditions were the same as set out above for Example 1A.

[4] = Determination of free colistin (turbidity) according to European Pharmacopeia 9.5; format: physicochemical; conditions: free colistin assay
Protocol: Determination of free colistin was performed according to European Pharmacopeia 9.5 (July 2017:0319).
1.0 g of hydrazine sulfate was dissolved in purified water, diluted to 100.0 mL with the same solvent and allowed to stand for 4-6 h.
2.5 g of hexamethylene tetramine was dissolved in 25.0 mL purified water in a 100 mL glass-stoppered volumetric flask.
25.0 mL hydrazine sulfate solution was added to the hexamethylene tetramine solution in the volumetric flask, mixed and allowed to stand for 24 h.
15.0 mL of the primary opalescent suspension was diluted to 1000.0 mL with purified water. This suspension was freshly prepared and stored for a maximum of 24 h.
Reference suspensions according to Table 6 were prepared for calibration of the turbidity meter.
One lyophilisate containing 240 mg CMS was dissolved in 10 mL purified water. CMS BDS was analyzed by dissolving 80 mg of CMS BDS in 3 mL purified water. After complete dissolution, 0.1 mL […] silicotungstic acid was added to 3 mL of the test sample (either reconstituted lyophilisate or dissolved BDS). The turbidity of the sample was recorded after 10 s-20 s.
Determination of free colistin was performed according to European Pharmacopeia 9.5 (July 2017:0319). The hydrazine sulfate solution, hexamethylene tetramine solution, primary opalescent suspension, standard of opalescence, and reference suspensions were prepared as in Example 2. […]

[5] = system: sensitive micro-organisms; conditions: cited from earlier work; for Potency: general value of the art
[6] = aqueous solutions; Wallace et al. 2010; cited from earlier work

In the case of `Cc1cn([C@H]2C[C@H](N=[N+]=[N-])[C@@H](CO)O2)c(=O)[nH]c1=O` [Zidovudine], the “Stability of zidovudine during the lyophilisation process” value [1] is reported as “stable during the lyophilisation process”.
In the case of colistimethate sodium [CMS], the “Effect on pH of the solution / buffer capacity” value [2] is reported as “strong buffer capacity at neutral to slightly basic pH values”, the “Solubility in TBA/water, all TBA concentrations” value [3] is reported as “soluble in all TBA concentrations” and the “Dissolution time in TBA/water” value ([3]; 20% to 60% (w/w) TBA, 5 mL) is reported as “within a few minutes”. The “Acceptance criteria/not more turbid than standard of opalescence II” value ([4]; Table 8 (Example 2)) was “yes”, the Turbidity ([4]; Table 8, organic solvent system lyophilisation (Example 2)) was 5.5 NTU and the Potency [5] was “around 12,500 IU/mg”. For the same molecule, the “Concentration in aqueous solution above which CMS is stable against hydrolysis due to the formation of micelles” value [6] was “above 3.5 mM and ~5.7 mg/mL”.
For colistin sulfate, the Potency [5] is listed as “around 20,500 IU/mg”.
For polymyxin B, the “International Units equivalent to 1 mg” value ([5]; generally accepted in the art) is given as “approximately 10,000 IU”.

Reference: patent US12594319B2, “Pharmaceutical development” (HELPERBY THERAPEUTICS LIMITED, priority 2019, dated 2026)
